Experiment: recombinant barcode read abundance after kanamycin selection (control-corrected) (log10(CPM+1)); higher = more efficient recombination; sequences stand for … in AGTGCAGAGAAAATCGGCCAGTTTTCTCTGCCTGCAGTCCGCATGCCGT…AGATTTATGCAGCGGACTGCCTTTCTCCCAAAGTGATAAACCGGACAGTATCATGGACCGGTTTTCCCGGTAATCCGTATTTGCAAGGTTGGTTTCACT; site = the 11-nt target
How it was run: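 A promoter, a target, a barcode and the first 104 bridge RNA bases under J23119 made up each oligo. Oligos were Gibson-cloned into a vector bearing the other 73 bp and a T7-inducible recombinase, then co-electroporated into E. coli with a donor plasmid and plated in duplicate on chloramphenicol/ampicillin LB agar (control) or chloramphenicol/ampicillin/kanamycin with 0.1 mM IPTG. Recombination efficiency is the averaged, control-corrected counts per million of recombinant-junction barcodes. Reported values are log10(CPM+1).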
For “TCCTGTGCTTGGGTTCTAACCTGTTGCCT (site TTCTATGCTAG)”, the “recombinant barcode read abundance (log10)” value was 0.00897. With “TCCTTCTCTTGGGTTCTAACCTGTTGCCT (site GAGGGGACTCT)” the “recombinant barcode read abundance (log10)” value was 0.103. With “TCCTTCTCTTGGGTTCTAACCTGTTGCCT (site TCCTTCTCTAG)” the “recombinant barcode read abundance (log10)” value was 0.601. With “TCGAACCCTTGGGTTCTAACCTGTTGCCT (site TCGAAACCTAG)” the “recombinant barcode read abundance (log10)” value was 0.36. In the case of “TCGAACCCTTGGGTTCTAACCTGTTGCCT (site TCGAACCCTAG)”, the “recombinant barcode read abundance (log10)” value is reported as 0.639. For “TCGAACCCTTGGGTTCTAACCTGTTGCCT (site TCGAAGCCTAG)”, the “recombinant barcode read abundance (log10)” value was 0.115. With “TCGAACCCTTGGGTTCTAACCTGTTGCCT (site TCGAATCCTAG)” the “recombinant barcode read abundance (log10)” value was 0.151. With “TCGAACGCTTGGGTTCTAACCTGTTGCTT (site CACGGGACTCT)” the “recombinant barcode read abundance (log10)” value was 0.115. For “TCGAACGCTTGGGTTCTAACCTGTTGCTT (site TCGAACGCTAA)”, the “recombinant barcode read abundance (log10)” value was 0.135. With “TCGACCACTTGGGTTCTAACCTGTTGCCT (site TATACCACTAG)” the “recombinant barcode read abundance (log10)” value was 0.0386. In the case of “TCGACCACTTGGGTTCTAACCTGTTGCCT (site TCGACCACTAG)”, the “recombinant barcode read abundance (log10)” value is reported as 0.115. In the case of “TCGAGGCCTTGGGTTCTAACCTGTTGCGG (site TAGAGCCCTCC)”, the “recombinant barcode read abundance (log10)” value is reported as 0.724. In the case of “TCGAGGCCTTGGGTTCTAACCTGTTGCGG (site TCGAGGCCTCC)”, the “recombinant barcode read abundance (log10)” value is reported as 1.34. In the case of “TCGAGTCCTTGGGTTCTAACCTGTTGCCA (site TCGAGTCCTTG)”, the “recombinant barcode read abundance (log10)” value is reported as 0.084. For “TCGAGTCCTTGGGTTCTAACCTGTTGCCA (site TGGTGTCCTTG)”, the “recombinant barcode read abundance (log10)” value was 0. In the case of “TCGATCACTTGGGTTCTAACCTGTTGCCT (site TCGATCACTAG)”, the “recombinant barcode read abundance (log10)” value is reported as 0.738. For “TCGATCACTTGGGTTCTAACCTGTTGCCT (site TCGATTACTAG)”, the “recombinant barcode read abundance (log10)” value was 0.0188. In the case of “TCGATCCCTTGGGTTCTAACCTGTTGCGT (site CTTTGAACTTA)”, the “recombinant barcode read abundance (log10)” value is reported as 0.315. For “TCGATCCCTTGGGTTCTAACCTGTTGCGT (site TCGATCCCTAC)”, the “recombinant barcode read abundance (log10)” value was 1.95. With “TCGCACACTTGGGTTCTAACCTGTTGCTG (site TAGCACACTCG)” the “recombinant barcode read abundance (log10)” value was 0.0637. For “TCGCACACTTGGGTTCTAACCTGTTGCTG (site TCGCACACTCA)”, the “recombinant barcode read abundance (log10)” value was 0.548. In the case of “TCGCGGACTTGGGTTCTAACCTGTTGCCT (site TCACGGACTAG)”, the “recombinant barcode read abundance (log10)” value is reported as 0.464. For “TCGCGGACTTGGGTTCTAACCTGTTGCCT (site TCCCGGACTAG)”, the “recombinant barcode read abundance (log10)” value was 0.243. In the case of “TCGCGGACTTGGGTTCTAACCTGTTGCCT (site TCGCGGACTAG)”, the “recombinant barcode read abundance (log10)” value is reported as 0.168. With “TCGCGGACTTGGGTTCTAACCTGTTGCCT (site TCTCGGACTAG)” the “recombinant barcode read abundance (log10)” value was 0.0887. With “TCGGAGTCTTGGGTTCTAACCTGTTGCAT (site TCGGAGTCTAA)” the “recombinant barcode read abundance (log10)” value was 0.5. In the case of “TCGGAGTCTTGGGTTCTAACCTGTTGCAT (site TCGGAGTCTAC)”, the “recombinant barcode read abundance (log10)” value is reported as 1.03. With “TCGGAGTCTTGGGTTCTAACCTGTTGCAT (site TCGGAGTCTAG)” the “recombinant barcode read abundance (log10)” value was 1.4. In the case of “TCGGAGTCTTGGGTTCTAACCTGTTGCAT (site TCGGAGTCTAT)”, the “recombinant barcode read abundance (log10)” value is reported as 2.29. In the case of “TCGGAGTCTTGGGTTCTAACCTGTTGCGC (site CTATGACCTCA)”, the “recombinant barcode read abundance (log10)” value is reported as 0.0526. In the case of “TCGGAGTCTTGGGTTCTAACCTGTTGCGC (site TCGGAGTCTGC)”, the “recombinant barcode read abundance (log10)” value is reported as 1.37. For “TCGGAGTCTTGGGTTCTAACCTGTTGCTG (site TCGGAGTCTCA)”, the “recombinant barcode read abundance (log10)” value was 0.963. In the case of “TCGGAGTCTTGGGTTCTAACCTGTTGCTG (site TCGGAGTCTCG)”, the “recombinant barcode read abundance (log10)” value is reported as 0.446. For “TCGGATACTTGGGTTCTAACCTGTTGCTT (site TCGGATACTAA)”, the “recombinant barcode read abundance (log10)” value was 0.659. In the case of “TCGGATACTTGGGTTCTAACCTGTTGCTT (site TCGGATACTAC)”, the “recombinant barcode read abundance (log10)” value is reported as 0.249. With “TCGGATACTTGGGTTCTAACCTGTTGCTT (site TCGGATACTAG)” the “recombinant barcode read abundance (log10)” value was 0.759. For “TCGGATACTTGGGTTCTAACCTGTTGCTT (site TCGGATACTAT)”, the “recombinant barcode read abundance (log10)” value was 0.323. With “TCGTCACCTTGGGTTCTAACCTGTTGCAT (site CTAGTGGCTCG)” the “recombinant barcode read abundance (log10)” value was 0. With “TCGTCACCTTGGGTTCTAACCTGTTGCAT (site TCGTCACCTAT)” the “recombinant barcode read abundance (log10)” value was 0.0694. For “TCGTCATCTTGGGTTCTAACCTGTTGCCT (site TCGTCATCTAG)”, the “recombinant barcode read abundance (log10)” value was 0.21. In the case of “TCGTCATCTTGGGTTCTAACCTGTTGCCT (site TCGTCCTCTAG)”, the “recombinant barcode read abundance (log10)” value is reported as 0.276. With “TCGTGCCCTTGGGTTCTAACCTGTTGCTG (site TCGTGCCCTAA)” the “recombinant barcode read abundance (log10)” value was 0.0676. With “TCGTGCCCTTGGGTTCTAACCTGTTGCTG (site TCGTGCCCTCA)” the “recombinant barcode read abundance (log10)” value was 0.156. With “TCGTTCCCTTGGGTTCTAACCTGTTGCTT (site TCGTTCCCTAA)” the “recombinant barcode read abundance (log10)” value was 0.105. With “TCGTTCCCTTGGGTTCTAACCTGTTGCTT (site TCGTTGCCTAG)” the “recombinant barcode read abundance (log10)” value was 0.0502. With “TCGTTGCCTTGGGTTCTAACCTGTTGCCT (site TCGTTCCCTAA)” the “recombinant barcode read abundance (log10)” value was 0.695. In the case of “TCGTTGCCTTGGGTTCTAACCTGTTGCCT (site TCGTTGCCTAG)”, the “recombinant barcode read abundance (log10)” value is reported as 0.533. With “TCTAACCCTTGGGTTCTAACCTGTTGCGG (site TCAAACCCTCC)” the “recombinant barcode read abundance (log10)” value was 0.332. With “TCTAACCCTTGGGTTCTAACCTGTTGCGG (site TCCAACCCTCC)” the “recombinant barcode read abundance (log10)” value was 0.0105. With “TCTAACCCTTGGGTTCTAACCTGTTGCGG (site TCGAACCCTCC)” the “recombinant barcode read abundance (log10)” value was 0.091. With “TCTAACCCTTGGGTTCTAACCTGTTGCGG (site TCTAACCCTCC)” the “recombinant barcode read abundance (log10)” value was 1.09. For “TCTAAGTCTTGGGTTCTAACCTGTTGCCG (site TCTAAGTCTAG)”, the “recombinant barcode read abundance (log10)” value was 0.0709. For “TCTAAGTCTTGGGTTCTAACCTGTTGCCG (site TCTAAGTCTCG)”, the “recombinant barcode read abundance (log10)” value was 0.137. With “TCTAAGTCTTGGGTTCTAACCTGTTGCCG (site TCTAAGTCTGG)” the “recombinant barcode read abundance (log10)” value was 0.0885. In the case of “TCTAAGTCTTGGGTTCTAACCTGTTGCCG (site TCTAAGTCTTG)”, the “recombinant barcode read abundance (log10)” value is reported as 0.483. With “TCTACTTCTTGGGTTCTAACCTGTTGCCT (site TCTACATCTAG)” the “recombinant barcode read abundance (log10)” value was 0.0183. For “TCTACTTCTTGGGTTCTAACCTGTTGCCT (site TCTACCTCTAG)”, the “recombinant barcode read abundance (log10)” value was 0.123. In the case of “TCTACTTCTTGGGTTCTAACCTGTTGCCT (site TCTACGTCTAG)”, the “recombinant barcode read abundance (log10)” value is reported as 0.0937. With “TCTACTTCTTGGGTTCTAACCTGTTGCCT (site TCTACTTCTAG)” the “recombinant barcode read abundance (log10)” value was 0.136. In the case of “TCTAGACCTTGGGTTCTAACCTGTTGCCT (site TCTAGAACTAG)”, the “recombinant barcode read abundance (log10)” value is reported as 0. For “TCTAGACCTTGGGTTCTAACCTGTTGCCT (site TCTAGACCTAG)”, the “recombinant barcode read abundance (log10)” value was 0.0778. With “TCTAGACCTTGGGTTCTAACCTGTTGCCT (site TCTAGAGCTAG)” the “recombinant barcode read abundance (log10)” value was 0.139. In the case of “TCTAGACCTTGGGTTCTAACCTGTTGCCT (site TCTAGATCTAG)”, the “recombinant barcode read abundance (log10)” value is reported as 0.03. For “TCTAGAGCTTGGGTTCTAACCTGTTGCGG (site CCTCGAGCTCC)”, the “recombinant barcode read abundance (log10)” value was 0.176. For “TCTAGAGCTTGGGTTCTAACCTGTTGCGG (site TCTAGAGCTCC)”, the “recombinant barcode read abundance (log10)” value was 1.61. With “TCTAGTCCTTGGGTTCTAACCTGTTGCCT (site TCTAGACCTTG)” the “recombinant barcode read abundance (log10)” value was 0.418. With “TCTAGTCCTTGGGTTCTAACCTGTTGCCT (site TCTAGTCCTAG)” the “recombinant barcode read abundance (log10)” value was 0.036. For “TCTCAACCTTGGGTTCTAACCTGTTGCCT (site TCTAAACCTAG)”, the “recombinant barcode read abundance (log10)” value was 0.0445. In the case of “TCTCAACCTTGGGTTCTAACCTGTTGCCT (site TCTCAACCTAG)”, the “recombinant barcode read abundance (log10)” value is reported as 1.33. With “TCTCAGGCTTGGGTTCTAACCTGTTGCCG (site TCACAGGCTCG)” the “recombinant barcode read abundance (log10)” value was 0.203. In the case of “TCTCAGGCTTGGGTTCTAACCTGTTGCCG (site TCTCAGGCTCG)”, the “recombinant barcode read abundance (log10)” value is reported as 0.0148. With “TCTCAGTCTTGGGTTCTAACCTGTTGCGG (site TCCCAGTCTCA)” the “recombinant barcode read abundance (log10)” value was 0.0631. In the case of “TCTCAGTCTTGGGTTCTAACCTGTTGCGG (site TCTCAGTCTCC)”, the “recombinant barcode read abundance (log10)” value is reported as 1.14. With “TCTCCAGCTTGGGTTCTAACCTGTTGCCT (site TCGCAAGCTAG)” the “recombinant barcode read abundance (log10)” value was 0.0305. In the case of “TCTCCAGCTTGGGTTCTAACCTGTTGCCT (site TCTCCAGCTAG)”, the “recombinant barcode read abundance (log10)” value is reported as 1.13. With “TCTCGAGCTTGGGTTCTAACCTGTTGCGA (site CTGGCGCCTAT)” the “recombinant barcode read abundance (log10)” value was 0.839. With “TCTCGAGCTTGGGTTCTAACCTGTTGCGA (site TCTCGAGCTTC)” the “recombinant barcode read abundance (log10)” value was 0.78. In the case of “TCTCGGACTTGGGTTCTAACCTGTTGCCT (site TCACGGACTAG)”, the “recombinant barcode read abundance (log10)” value is reported as 0.147. With “TCTCGGACTTGGGTTCTAACCTGTTGCCT (site TCCCGGACTAG)” the “recombinant barcode read abundance (log10)” value was 0.0144. In the case of “TCTCGGACTTGGGTTCTAACCTGTTGCCT (site TCGCGGACTAG)”, the “recombinant barcode read abundance (log10)” value is reported as 0.0137. In the case of “TCTCGGACTTGGGTTCTAACCTGTTGCCT (site TCTCGGACTAG)”, the “recombinant barcode read abundance (log10)” value is reported as 0.249. With “TCTCTCGCTTGGGTTCTAACCTGTTGCCT (site CAGAATCCTCC)” the “recombinant barcode read abundance (log10)” value was 0.108. In the case of “TCTCTCGCTTGGGTTCTAACCTGTTGCCT (site TCTCTCGCTAG)”, the “recombinant barcode read abundance (log10)” value is reported as 0.47. With “TCTGATCCTTGGGTTCTAACCTGTTGCCT (site TCTCACCCTAG)” the “recombinant barcode read abundance (log10)” value was 0.0615. With “TCTGATCCTTGGGTTCTAACCTGTTGCCT (site TCTGATCCTAG)” the “recombinant barcode read abundance (log10)” value was 0.7. With “TCTGGGCCTTGGGTTCTAACCTGTTGCTA (site TCTGGGCCTAA)” the “recombinant barcode read abundance (log10)” value was 0.42.

— the supplement of paper PMC11208160
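Further: IS621 recombinase and bridge RNA in Escherichia coli cells.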
